Results from patent publication US20210346329A1, “TCA CYCLE INTERMEDIATES AND METHODS OF USE THEREOF” (IMBRIA PHARMACEUTICALS, INC., priority 2018, published 2021).

Legend:
[1] = Plasma concentrations of radioactive material; type: in vivo, CD® rats; settings: IV 10 mg/kg
Method: (§1) The plasma-time course, routes and rates of excretion, and tissue distribution of radioactivity following a single oral dose of ^14C-labeled citrate or single oral dose of ^14C-labeled succinate were analyzed in rats.
Formulations were prepared on the day prior to dosing.
(§2) CD® rats were obtained from Charles River Laboratories. Animals were 9-11 weeks in age at beginning of study.
(§3) Animals given intravenous ^14C-succinate were not kept in a fasting state. ^14C-succinate was administered by tail vein injection.
Blood and plasma were collected by cardiac puncture for terminal collection at 0.5, 1, 2, 4, 8, and 24 hours post-dose. Blood was stored on an ice block or wet ice until centrifugation to obtain plasma. Triplicate aliquots were weighed, mixed with scintillation cocktail, and counted by LSC.
Samples were analyzed for radioactivity by liquid scintillation counting (LSC) for at least 5 minutes or 100,000 cumulative counts. Samples were analyzed in triplicate.

[2] = Tissue distribution of radioactivity (whole-body sections, phosphor imaging, image densitometry); settings: IV 10 mg/kg
Method: as §1, §2, §3
At 0.5, 1, 2, 4, 8, and 24 hours post-dose, after terminal blood collections, euthanized animals were frozen in a hexane/dry ice bath and embedded in a 5% carboxymethylcellulose matrix according to MPI Research SOP IMG-23.
Sections of approximately 30 μm thickness were taken in the sagittal plane. Appropriate sections selected at various levels of interest in the block were collected to encompass the following tissues, organs, and biological fluids, where possible: adrenal gland, bladder and contents (urine), blood (cardiac), bone, bone marrow, brain, epididymis, eye, fat (brown), fat (white), heart, kidney, large intestine/cecum and contents, liver, lung, muscle, pancreas, prostate/uterus, salivary glands, skin, small intestine and contents, spleen, stomach and contents, testes/ovaries, thymus, thyroid, and mesenteric lymph nodes.
Quantification, relative to the calibration standards, was performed by image densitometry using MCID™ image analysis software according to MPI Research SOP IMG-24. A standard curve was constructed from the integrated response (MDC/mm^2) and the nominal concentrations of the [^14C]calibration standards. The concentrations of radioactivity were expressed as μCi/g and converted to μg or ng equivalents of [^14C]Test Article per gram sample (ng-eq/g or μg-eq/g) using the specific activity of administered [^14C]Test Article dose formulation. A lower limit of quantification (LLOQ) was applied to the data. The LLOQ was determined using the radioactive concentration of the lowest calibration standard used to generate a calibration curve divided by the specific activity of the dose formulation (μCi/mg). Artifacts, such as those produced by dislodged contents of the alimentary canal, were excluded from analysis during image analysis.

## O=C(O)CCC(=O)O [^14C-succinate]
[1]; 30 min, Subject 1001
  Plasma concentration of radioactive material: 2809 ng-equivalents/g
[1]; 1 hr, Subject 1002
  Plasma concentration of radioactive material: 2996 ng-equivalents/g
[1]; 2 hr, Subject 1003
  Plasma concentration of radioactive material: 1466 ng-equivalents/g
[1]; 4 hr, Subject 1004
  Plasma concentration of radioactive material: 1158 ng-equivalents/g
[1]; 8 hr, Subject 1005
  Plasma concentration of radioactive material: 813 ng-equivalents/g
[1]; 24 hr, Subject 1006
  Plasma concentration of radioactive material: 511 ng-equivalents/g
[2]; Bone marrow, 0.5 Hour
  Radioactivity in tissue: 1314 ng Equivalents test article/g
[2]; Bone marrow, 1 Hour
  Radioactivity in tissue: 1750 ng Equivalents test article/g
[2]; Bone marrow, 2 Hours
  Radioactivity in tissue: 1398 ng Equivalents test article/g
[2]; Bone marrow, 4 Hours
  Radioactivity in tissue: 1419 ng Equivalents test article/g
[2]; Bone marrow, 8 Hours
  Radioactivity in tissue: 1019 ng Equivalents test article/g
[2]; Bone marrow, 24 Hours
  Radioactivity in tissue: 769 ng Equivalents test article/g
[2]; Bone, 0.5 Hour
  Radioactivity in tissue: 3128 ng Equivalents test article/g
[2]; Bone, 1 Hour
  Radioactivity in tissue: 3200 ng Equivalents test article/g
[2]; Bone, 2 Hours
  Radioactivity in tissue: 1989 ng Equivalents test article/g
[2]; Bone, 4 Hours
  Radioactivity in tissue: 2330 ng Equivalents test article/g
[2]; Bone, 8 Hours
  Radioactivity in tissue: 2042 ng Equivalents test article/g
[2]; Bone, 24 Hours
  Radioactivity in tissue: 1322 ng Equivalents test article/g
[2]; Cecum contents, 0.5 Hour
  Radioactivity in tissue: 540 ng Equivalents test article/g
[2]; Cecum contents, 1 Hour
  Radioactivity in tissue: 882 ng Equivalents test article/g
[2]; Cecum contents, 2 Hours
  Radioactivity in tissue: 757 ng Equivalents test article/g
[2]; Cecum contents, 4 Hours
  Radioactivity in tissue: 750 ng Equivalents test article/g
[2]; Cecum contents, 8 Hours
  Radioactivity in tissue: 806 ng Equivalents test article/g
[2]; Cecum contents, 24 Hours
  Radioactivity in tissue: BLQ (BLQ: Below limit of quantitation (<320 ng equivalents test article/g).)
[2]; Cecum, 0.5 Hour
  Radioactivity in tissue: BLQ (BLQ: Below limit of quantitation (<320 ng equivalents test article/g).)
[2]; Cecum, 1 Hour
  Radioactivity in tissue: BLQ (BLQ: Below limit of quantitation (<320 ng equivalents test article/g).)
[2]; Cecum, 2 Hours
  Radioactivity in tissue: BLQ (BLQ: Below limit of quantitation (<320 ng equivalents test article/g).)
[2]; Cecum, 4 Hours
  Radioactivity in tissue: BLQ (BLQ: Below limit of quantitation (<320 ng equivalents test article/g).)
[2]; Cecum, 8 Hours
  Radioactivity in tissue: BLQ (BLQ: Below limit of quantitation (<320 ng equivalents test article/g).)
[2]; Cecum, 24 Hours
  Radioactivity in tissue: BLQ (BLQ: Below limit of quantitation (<320 ng equivalents test article/g).)
[2]; Cerebellum, 0.5 Hour
  Radioactivity in tissue: 709 ng Equivalents test article/g
[2]; Cerebellum, 1 Hour
  Radioactivity in tissue: 847 ng Equivalents test article/g
[2]; Cerebellum, 2 Hours
  Radioactivity in tissue: 529 ng Equivalents test article/g
[2]; Cerebellum, 4 Hours
  Radioactivity in tissue: 503 ng Equivalents test article/g
[2]; Cerebellum, 8 Hours
  Radioactivity in tissue: BLQ (BLQ: Below limit of quantitation (<320 ng equivalents test article/g).)
[2]; Cerebellum, 24 Hours
  Radioactivity in tissue: BLQ (BLQ: Below limit of quantitation (<320 ng equivalents test article/g).)
[2]; Cerebrum, 0.5 Hour
  Radioactivity in tissue: 596 ng Equivalents test article/g
[2]; Cerebrum, 1 Hour
  Radioactivity in tissue: 853 ng Equivalents test article/g
[2]; Cerebrum, 2 Hours
  Radioactivity in tissue: 477 ng Equivalents test article/g
[2]; Cerebrum, 4 Hours
  Radioactivity in tissue: 543 ng Equivalents test article/g
[2]; Cerebrum, 8 Hours
  Radioactivity in tissue: 348 ng Equivalents test article/g
[2]; Cerebrum, 24 Hours
  Radioactivity in tissue: BLQ (BLQ: Below limit of quantitation (<320 ng equivalents test article/g).)
[2]; Epididymis, 0.5 Hour
  Radioactivity in tissue: 699 ng Equivalents test article/g
[2]; Epididymis, 1 Hour
  Radioactivity in tissue: 785 ng Equivalents test article/g
[2]; Epididymis, 2 Hours
  Radioactivity in tissue: 442 ng Equivalents test article/g
[2]; Epididymis, 4 Hours
  Radioactivity in tissue: BLQ (BLQ: Below limit of quantitation (<320 ng equivalents test article/g).)
[2]; Epididymis, 8 Hours
  Radioactivity in tissue: BLQ (BLQ: Below limit of quantitation (<320 ng equivalents test article/g).)
[2]; Epididymis, 24 Hours
  Radioactivity in tissue: BLQ (BLQ: Below limit of quantitation (<320 ng equivalents test article/g).)
[2]; Eye, 0.5 Hour
  Radioactivity in tissue: 569 ng Equivalents test article/g
[2]; Eye, 1 Hour
  Radioactivity in tissue: 584 ng Equivalents test article/g
[2]; Eye, 2 Hours
  Radioactivity in tissue: 371 ng Equivalents test article/g
[2]; Eye, 4 Hours
  Radioactivity in tissue: 413 ng Equivalents test article/g
[2]; Eye, 8 Hours
  Radioactivity in tissue: BLQ (BLQ: Below limit of quantitation (<320 ng equivalents test article/g).)
[2]; Eye, 24 Hours
  Radioactivity in tissue: BLQ (BLQ: Below limit of quantitation (<320 ng equivalents test article/g).)
[2]; Fat (brown), 0.5 Hour
  Radioactivity in tissue: 996 ng Equivalents test article/g
[2]; Fat (brown), 1 Hour
  Radioactivity in tissue: BLQ (BLQ: Below limit of quantitation (<320 ng equivalents test article/g).)
[2]; Fat (brown), 2 Hours
  Radioactivity in tissue: BLQ (BLQ: Below limit of quantitation (<320 ng equivalents test article/g).)
[2]; Fat (brown), 4 Hours
  Radioactivity in tissue: BLQ (BLQ: Below limit of quantitation (<320 ng equivalents test article/g).)
[2]; Fat (brown), 8 Hours
  Radioactivity in tissue: BLQ (BLQ: Below limit of quantitation (<320 ng equivalents test article/g).)
[2]; Fat (brown), 24 Hours
  Radioactivity in tissue: BLQ (BLQ: Below limit of quantitation (<320 ng equivalents test article/g).)
[2]; Fat (white), 0.5 Hour
  Radioactivity in tissue: BLQ (BLQ: Below limit of quantitation (<320 ng equivalents test article/g).)
[2]; Fat (white), 1 Hour
  Radioactivity in tissue: BLQ (BLQ: Below limit of quantitation (<320 ng equivalents test article/g).)
[2]; Fat (white), 2 Hours
  Radioactivity in tissue: BLQ (BLQ: Below limit of quantitation (<320 ng equivalents test article/g).)
[2]; Fat (white), 4 Hours
  Radioactivity in tissue: 348 ng Equivalents test article/g
[2]; Fat (white), 8 Hours
  Radioactivity in tissue: BLQ (BLQ: Below limit of quantitation (<320 ng equivalents test article/g).)
[2]; Fat (white), 24 Hours
  Radioactivity in tissue: BLQ (BLQ: Below limit of quantitation (<320 ng equivalents test article/g).)
[2]; Harderian gland, 0.5 Hour
  Radioactivity in tissue: BLQ (BLQ: Below limit of quantitation (<320 ng equivalents test article/g).)
[2]; Harderian gland, 1 Hour
  Radioactivity in tissue: 1983 ng Equivalents test article/g
[2]; Harderian gland, 2 Hours
  Radioactivity in tissue: 1478 ng Equivalents test article/g
[2]; Harderian gland, 4 Hours
  Radioactivity in tissue: BLQ (BLQ: Below limit of quantitation (<320 ng equivalents test article/g).)
[2]; Harderian gland, 8 Hours
  Radioactivity in tissue: BLQ (BLQ: Below limit of quantitation (<320 ng equivalents test article/g).)
[2]; Harderian gland, 24 Hours
  Radioactivity in tissue: BLQ (BLQ: Below limit of quantitation (<320 ng equivalents test article/g).)
[2]; Kidney, 0.5 Hour
  Radioactivity in tissue: 3154 ng Equivalents test article/g
[2]; Kidney, 1 Hour
  Radioactivity in tissue: 3060 ng Equivalents test article/g
[2]; Kidney, 2 Hours
  Radioactivity in tissue: 2704 ng Equivalents test article/g
[2]; Kidney, 4 Hours
  Radioactivity in tissue: 2075 ng Equivalents test article/g
[2]; Kidney, 8 Hours
  Radioactivity in tissue: 2031 ng Equivalents test article/g
[2]; Kidney, 24 Hours
  Radioactivity in tissue: 1120 ng Equivalents test article/g
[2]; Lacrimal gland (Ex-orbital), 0.5 Hour
  Radioactivity in tissue: BLQ (BLQ: Below limit of quantitation (<320 ng equivalents test article/g).)
[2]; Lacrimal gland (Ex-orbital), 1 Hour
  Radioactivity in tissue: 1557 ng Equivalents test article/g
[2]; Lacrimal gland (Ex-orbital), 2 Hours
  Radioactivity in tissue: 1655 ng Equivalents test article/g
[2]; Lacrimal gland (Ex-orbital), 4 Hours
  Radioactivity in tissue: 1993 ng Equivalents test article/g
[2]; Lacrimal gland (Ex-orbital), 8 Hours
  Radioactivity in tissue: 1388 ng Equivalents test article/g
[2]; Lacrimal gland (Ex-orbital), 24 Hours
  Radioactivity in tissue: BLQ (BLQ: Below limit of quantitation (<320 ng equivalents test article/g).)
[2]; Lacrimal gland (Intra-orbital), 0.5 Hour
  Radioactivity in tissue: BLQ (BLQ: Below limit of quantitation (<320 ng equivalents test article/g).)
[2]; Lacrimal gland (Intra-orbital), 1 Hour
  Radioactivity in tissue: 2323 ng Equivalents test article/g
[2]; Lacrimal gland (Intra-orbital), 2 Hours
  Radioactivity in tissue: 1355 ng Equivalents test article/g
[2]; Lacrimal gland (Intra-orbital), 4 Hours
  Radioactivity in tissue: BLQ (BLQ: Below limit of quantitation (<320 ng equivalents test article/g).)
[2]; Lacrimal gland (Intra-orbital), 8 Hours
  Radioactivity in tissue: BLQ (BLQ: Below limit of quantitation (<320 ng equivalents test article/g).)
[2]; Lacrimal gland (Intra-orbital), 24 Hours
  Radioactivity in tissue: BLQ (BLQ: Below limit of quantitation (<320 ng equivalents test article/g).)
[2]; Large intestinal contents, 0.5 Hour
  Radioactivity in tissue: BLQ (BLQ: Below limit of quantitation (<320 ng equivalents test article/g).)
[2]; Large intestinal contents, 1 Hour
  Radioactivity in tissue: 519 ng Equivalents test article/g
[2]; Large intestinal contents, 4 Hours
  Radioactivity in tissue: 810 ng Equivalents test article/g
[2]; Large intestinal contents, 8 Hours
  Radioactivity in tissue: 593 ng Equivalents test article/g
[2]; Large intestinal contents, 24 Hours
  Radioactivity in tissue: BLQ (BLQ: Below limit of quantitation (<320 ng equivalents test article/g).)
[2]; Large intestine, 0.5 Hour
  Radioactivity in tissue: BLQ (BLQ: Below limit of quantitation (<320 ng equivalents test article/g).)
[2]; Large intestine, 1 Hour
  Radioactivity in tissue: 1787 ng Equivalents test article/g
[2]; Large intestine, 2 Hours
  Radioactivity in tissue: 1716 ng Equivalents test article/g
[2]; Large intestine, 4 Hours
  Radioactivity in tissue: 1361 ng Equivalents test article/g
[2]; Large intestine, 8 Hours
  Radioactivity in tissue: BLQ (BLQ: Below limit of quantitation (<320 ng equivalents test article/g).)
[2]; Large intestine, 24 Hours
  Radioactivity in tissue: BLQ (BLQ: Below limit of quantitation (<320 ng equivalents test article/g).)
[2]; Liver, 0.5 Hour
  Radioactivity in tissue: 2431 ng Equivalents test article/g
[2]; Liver, 1 Hour
  Radioactivity in tissue: 3607 ng Equivalents test article/g
[2]; Liver, 2 Hours
  Radioactivity in tissue: 2005 ng Equivalents test article/g
[2]; Liver, 4 Hours
  Radioactivity in tissue: 1561 ng Equivalents test article/g
[2]; Liver, 8 Hours
  Radioactivity in tissue: 1190 ng Equivalents test article/g
